# Values joined by “and” are separate entries in the source; they are usually repeats but may differ in a detail not shown here. Identical values can stand only once.
# Assay: Tissue distribution and elimination of total radioactivity (total residues) after oral ^3H-ADP for 7 d
# Assay type: in vivo, carp
# Parameters: Ke of total residues: unit not given here
# Description: (0.1 Ci/g) through oral gavage for 7 consecutive days. All the animals were housed on the basis of their group in the cages or aquaria throughout the whole study period. A group of animals was slaughtered through exsanguination under diethyl ether inhalation of anesthesia in the period of 6 h, 1, 3, 7, 14, and 21 d after the administration. The blood samples were immediately collected into the heparinized tubes and was centrifuged at 1920 × g at 4 °C for 10 min to obtain the plasma. The tissues from the heart, liver, spleen, lung, kidney, craw (broilers), stomach, intestine, fat, skin, muscle, thymus, pancreas, bile, bladder, hair (scale for carp), genital gland, adrenal glands, swim bladder (carp), brain, lymph, and bursa (broilers) were carefully excised and collected. The tissues were thoroughly rinsed with the deionized water to remove the residuary blood, blotted to dryness, and finally to perform the homogenization. In order to avoid cross-contamination the dissecting instruments were washed during the tissue procurements. The blank tissues were collected in order to provide control matrices. The total radioactivity levels in each sample were determined through LSC. The samples extracted from the plasma, bile, and tissues of the liver, kidney, muscle, and fat/skin were analyzed through LC/MS-IT-TOF and v. ARC radiometric detection for metabolite profiling.
# Measurements of the total radioactivity in each sample were conducted by Packard Tri-Carb 2900 TR liquid scintillation counter (PerkinElmer Life and Analytical Sciences). The detection time was 10 min for two cycles. The scintillation counter data were automatically corrected for counting efficiency by instrument-stored quench curve which was drawn with a series of sealed quenched […] standards. The actual radioactivity of each sample was calculated by subtracting the background value form the mean radioactivity in two blank samples. All the samples were analyzed in duplicate if the sample size allowed this. If the results were differed by more than 10% from the mean value, the samples were reanalyzed. The samples with LSC counts less than 2-fold of the level of the running background were considered to contain insufficient radioactivity for reliable quantification.
# Aliquots of liquid samples (urine, plasma, bile and raised water, 200 μL) were mixed with 10 mL of Ultima Gold^TM scintillation fluid for the direct analysis by LSC. Aliquots of solid samples (feces and tissues, 200 mg) were digested overnight with 2 mL tissue solubilizer at 50 °C in a shaking water bath, followed by adding 200 μL of 0.1 mol/L EDTA-Na and 200 μL of 30% H2O2, and was bathed at 50 °C for 2 h to bleach. The obtained transparent liquid were mixed with 10 mL of scintillation fluid and finally were counted by LSC. The digestion efficiency was determined by using the blank samples spiked with ^3 H standard for digestion, and the measured radioactivity content in the digested samples were adjusted by using the digestion efficiency values.
# The concentrations of ADP and/or its metabolites were analyzed by using the following equation: C = L/(2.22 × 10^9 × RM), where C is the concentration of ADP or/and its metabolites (mg/kg), L is the LSC count (dpm), R is the specific activity of the administered dose (0.1 Ci/g), and M is the weight or volume of samples (kg or L). The results are expressed as mean ± SD. The elimination kinetics of terminal phase for ADP and its metabolites were conducted by using the WinNonlin linear regression program (Pharsight corporation, Statistical consultants, Inc., Kentucky, USA).
structure (smiles),measurement,setting,value
[3H]c1c(Cc2cnc(N)nc2N)cc(OC)c(N(C)C)c1OC [^3H-ADP],Ke of total residues,carp Bile,0.38
same,Concentrations of total residues,"carp Bile, 0.25 d after 5 mg/kg b. w. for 7 days",334.6 ± 69.0 mg/kg and 334.60 ± 69.02 mg/kg
same,Concentrations of total residues,"carp Bile, 1 d after 5 mg/kg b. w. for 7 days",89.59 ± 3.87 mg/kg
same,Concentrations of total residues,"carp Bile, 3 d after 5 mg/kg b. w. for 7 days",24.33 ± 1.91 mg/kg
same,Concentrations of total residues,"carp Bile, 7 d after 5 mg/kg b. w. for 7 days",1.34 ± 0.29 mg/kg
same,Concentrations of total residues,"carp Bile, 14 d after 5 mg/kg b. w. for 7 days",0.13 ± 0.05 mg/kg
same,Concentrations of total residues,"carp Bile, 21 d after 5 mg/kg b. w. for 7 days",0.01 ± 0.00 mg/kg
same,Ke of total residues,carp Blood,0.20
same,Concentrations of total residues,"carp Blood, 0.25 d after 5 mg/kg b. w. for 7 days",1.73 ± 0.18 mg/kg
same,Concentrations of total residues,"carp Blood, 1 d after 5 mg/kg b. w. for 7 days",1.06 ± 0.10 mg/kg
same,Concentrations of total residues,"carp Blood, 3 d after 5 mg/kg b. w. for 7 days",0.40 ± 0.08 mg/kg
same,Concentrations of total residues,"carp Blood, 7 d after 5 mg/kg b. w. for 7 days",0.19 ± 0.02 mg/kg
same,Concentrations of total residues,"carp Blood, 14 d after 5 mg/kg b. w. for 7 days",0.05 ± 0.01 mg/kg
same,Ke of total residues,carp Branchia,0.23
same,Concentrations of total residues,"carp Branchia, 0.25 d after 5 mg/kg b. w. for 7 days",12.73 ± 1.93 mg/kg
same,Concentrations of total residues,"carp Branchia, 1 d after 5 mg/kg b. w. for 7 days",5.46 ± 0.84 mg/kg
same,Concentrations of total residues,"carp Branchia, 3 d after 5 mg/kg b. w. for 7 days",1.66 ± 0.08 mg/kg
same,Concentrations of total residues,"carp Branchia, 7 d after 5 mg/kg b. w. for 7 days",0.22 ± 0.04 mg/kg
same,Concentrations of total residues,"carp Branchia, 14 d after 5 mg/kg b. w. for 7 days",0.05 ± 0.00 mg/kg
same,Concentrations of total residues,"carp Branchia, 21 d after 5 mg/kg b. w. for 7 days",0.01 ± 0.00 mg/kg
same,Ke of total residues,carp Colla piscis,0.24
same,Concentrations of total residues,"carp Colla piscis, 0.25 d after 5 mg/kg b. w. for 7 days",2.78 ± 0.76 mg/kg
same,Concentrations of total residues,"carp Colla piscis, 1 d after 5 mg/kg b. w. for 7 days",1.50 ± 0.22 mg/kg
same,Concentrations of total residues,"carp Colla piscis, 3 d after 5 mg/kg b. w. for 7 days",0.41 ± 0.04 mg/kg
same,Concentrations of total residues,"carp Colla piscis, 7 d after 5 mg/kg b. w. for 7 days",0.10 ± 0.02 mg/kg
same,Concentrations of total residues,"carp Colla piscis, 14 d after 5 mg/kg b. w. for 7 days",0.03 ± 0.01 mg/kg
same,Ke of total residues,carp Heart,0.30
same,Concentrations of total residues,"carp Heart, 0.25 d after 5 mg/kg b. w. for 7 days",5.37 ± 0.50 mg/kg
same,Concentrations of total residues,"carp Heart, 1 d after 5 mg/kg b. w. for 7 days",2.58 ± 0.57 mg/kg
same,Concentrations of total residues,"carp Heart, 3 d after 5 mg/kg b. w. for 7 days",1.11 ± 0.08 mg/kg
same,Concentrations of total residues,"carp Heart, 7 d after 5 mg/kg b. w. for 7 days",0.34 ± 0.05 mg/kg
same,Concentrations of total residues,"carp Heart, 14 d after 5 mg/kg b. w. for 7 days",0.14 ± 0.02 mg/kg
same,Concentrations of total residues,"carp Heart, 21 d after 5 mg/kg b. w. for 7 days",0.01 ± 0.00 mg/kg
same,Ke of total residues,carp Intestine,0.21
same,Concentrations of total residues,"carp Intestine, 1 d after 5 mg/kg b. w. for 7 days",5.35 ± 0.51 mg/kg
same,Concentrations of total residues,"carp Intestine, 3 d after 5 mg/kg b. w. for 7 days",1.85 ± 0.25 mg/kg
same,Concentrations of total residues,"carp Intestine, 7 d after 5 mg/kg b. w. for 7 days",0.42 ± 0.09 mg/kg
same,Concentrations of total residues,"carp Intestine, 14 d after 5 mg/kg b. w. for 7 days",0.16 ± 0.06 mg/kg
same,Ke of total residues,carp Kidney,0.19
same,Concentrations of total residues,"carp Kidney, 0.25 d after 5 mg/kg b. w. for 7 days",47.64 ± 9.81 mg/kg
same,Concentrations of total residues,"carp Kidney, 1 d after 5 mg/kg b. w. for 7 days",8.30 ± 1.02 mg/kg
same,Concentrations of total residues,"carp Kidney, 3 d after 5 mg/kg b. w. for 7 days",3.83 ± 0.39 mg/kg
same,Concentrations of total residues,"carp Kidney, 7 d after 5 mg/kg b. w. for 7 days",1.57 ± 0.11 mg/kg
same,Concentrations of total residues,"carp Kidney, 14 d after 5 mg/kg b. w. for 7 days",0.72 ± 0.10 mg/kg
same,Concentrations of total residues,"carp Kidney, 21 d after 5 mg/kg b. w. for 7 days",0.10 ± 0.02 mg/kg
same,Ke of total residues,carp Liver,0.10
same,Concentrations of total residues,"carp Liver, 0.25 d after 5 mg/kg b. w. for 7 days",15.59 ± 1.52 mg/kg
same,Concentrations of total residues,"carp Liver, 3 d after 5 mg/kg b. w. for 7 days",2.53 ± 0.21 mg/kg
same,Concentrations of total residues,"carp Liver, 7 d after 5 mg/kg b. w. for 7 days",0.40 ± 0.08 mg/kg
same,Concentrations of total residues,"carp Liver, 14 d after 5 mg/kg b. w. for 7 days",0.30 ± 0.05 mg/kg
same,Concentrations of total residues,"carp Liver, 21 d after 5 mg/kg b. w. for 7 days",0.09 ± 0.01 mg/kg
same,Ke of total residues,carp Muscle,0.23
same,Concentrations of total residues,"carp Muscle, 0.25 d after 5 mg/kg b. w. for 7 days",2.26 ± 0.62 mg/kg
same,Concentrations of total residues,"carp Muscle, 1 d after 5 mg/kg b. w. for 7 days",1.96 ± 0.48 mg/kg
same,Concentrations of total residues,"carp Muscle, 3 d after 5 mg/kg b. w. for 7 days",0.96 ± 0.10 mg/kg
same,Concentrations of total residues,"carp Muscle, 7 d after 5 mg/kg b. w. for 7 days",0.43 ± 0.09 mg/kg
same,Concentrations of total residues,"carp Muscle, 14 d after 5 mg/kg b. w. for 7 days",0.08 ± 0.00 mg/kg
same,Ke of total residues,carp Roe,0.16
same,Concentrations of total residues,"carp Roe, 0.25 d after 5 mg/kg b. w. for 7 days",4.74 ± 1.03 mg/kg
same,Concentrations of total residues,"carp Roe, 1 d after 5 mg/kg b. w. for 7 days",3.86 ± 0.76 mg/kg
same,Concentrations of total residues,"carp Roe, 3 d after 5 mg/kg b. w. for 7 days",2.24 ± 0.36 mg/kg
same,Concentrations of total residues,"carp Roe, 7 d after 5 mg/kg b. w. for 7 days",0.85 ± 0.40 mg/kg
same,Concentrations of total residues,"carp Roe, 14 d after 5 mg/kg b. w. for 7 days",0.47 ± 0.13 mg/kg
same,Concentrations of total residues,"carp Roe, 21 d after 5 mg/kg b. w. for 7 days",0.09 ± 0.01 mg/kg
same,Ke of total residues,carp Scales,0.24
same,Concentrations of total residues,"carp Scales, 0.25 d after 5 mg/kg b. w. for 7 days",2.59 ± 0.32 mg/kg
same,Concentrations of total residues,"carp Scales, 1 d after 5 mg/kg b. w. for 7 days",2.01 ± 0.45 mg/kg
same,Concentrations of total residues,"carp Scales, 3 d after 5 mg/kg b. w. for 7 days",0.80 ± 0.04 mg/kg
same,Concentrations of total residues,"carp Scales, 7 d after 5 mg/kg b. w. for 7 days",0.29 ± 0.07 mg/kg
same,Concentrations of total residues,"carp Scales, 14 d after 5 mg/kg b. w. for 7 days",0.06 ± 0.01 mg/kg
same,Ke of total residues,carp Skin,0.29
same,Concentrations of total residues,"carp Skin, 0.25 d after 5 mg/kg b. w. for 7 days",3.66 ± 0.62 mg/kg
same,Concentrations of total residues,"carp Skin, 1 d after 5 mg/kg b. w. for 7 days",2.82 ± 0.91 mg/kg
same,Concentrations of total residues,"carp Skin, 3 d after 5 mg/kg b. w. for 7 days",1.48 ± 0.16 mg/kg
same,Concentrations of total residues,"carp Skin, 7 d after 5 mg/kg b. w. for 7 days",0.87 ± 0.17 mg/kg
same,Concentrations of total residues,"carp Skin, 14 d after 5 mg/kg b. w. for 7 days",0.07 ± 0.01 mg/kg
same,Ke of total residues,carp Spleen,0.23
same,Concentrations of total residues,"carp Spleen, 0.25 d after 5 mg/kg b. w. for 7 days",63.23 ± 2.89 mg/kg
same,Concentrations of total residues,"carp Spleen, 1 d after 5 mg/kg b. w. for 7 days",27.12 ± 4.89 mg/kg
same,Concentrations of total residues,"carp Spleen, 3 d after 5 mg/kg b. w. for 7 days",8.17 ± 0.59 mg/kg
same,Concentrations of total residues,"carp Spleen, 7 d after 5 mg/kg b. w. for 7 days",0.73 ± 0.17 mg/kg
same,Concentrations of total residues,"carp Spleen, 14 d after 5 mg/kg b. w. for 7 days",0.25 ± 0.05 mg/kg
same,Concentrations of total residues,"carp Spleen, 21 d after 5 mg/kg b. w. for 7 days",0.03 ± 0.00 mg/kg
